Target: human capsaicin receptor (VR1) (Homo sapiens, UniProt Q8NER1)
Test: Capsaicin receptor binding assay ([3H]RTX competition, VR1-transfected HEK293 membranes)

human capsaicin receptor (VR1), sequence (Q8NER1 whole entry): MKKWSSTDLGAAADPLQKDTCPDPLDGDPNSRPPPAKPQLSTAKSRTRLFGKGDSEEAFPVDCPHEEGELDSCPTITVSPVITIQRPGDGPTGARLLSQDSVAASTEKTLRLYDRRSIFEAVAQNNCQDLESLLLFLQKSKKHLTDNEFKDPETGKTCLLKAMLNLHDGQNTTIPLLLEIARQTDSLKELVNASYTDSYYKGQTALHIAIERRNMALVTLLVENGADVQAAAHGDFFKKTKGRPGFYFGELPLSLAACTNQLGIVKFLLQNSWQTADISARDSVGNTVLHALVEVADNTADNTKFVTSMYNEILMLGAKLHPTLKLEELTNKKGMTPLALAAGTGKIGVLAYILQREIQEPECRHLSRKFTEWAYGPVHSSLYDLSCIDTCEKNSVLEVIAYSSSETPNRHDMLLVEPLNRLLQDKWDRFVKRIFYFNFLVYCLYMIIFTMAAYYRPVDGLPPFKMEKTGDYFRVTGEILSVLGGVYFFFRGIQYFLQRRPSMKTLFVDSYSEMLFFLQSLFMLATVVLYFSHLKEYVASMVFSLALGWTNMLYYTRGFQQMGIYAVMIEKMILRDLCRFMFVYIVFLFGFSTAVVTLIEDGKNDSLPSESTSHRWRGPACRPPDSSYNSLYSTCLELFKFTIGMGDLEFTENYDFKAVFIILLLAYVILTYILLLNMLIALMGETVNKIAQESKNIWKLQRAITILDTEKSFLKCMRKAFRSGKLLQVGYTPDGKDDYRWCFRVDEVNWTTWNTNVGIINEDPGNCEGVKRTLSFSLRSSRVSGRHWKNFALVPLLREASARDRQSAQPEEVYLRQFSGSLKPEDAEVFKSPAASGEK

Ki | Structure (SMILES)
< 1000 nM | C[C@@H]1CN(Cc2nc(Nc3ccc(C(F)(F)F)cc3)c3ccc(-c4ncccc4Cl)cc3n2)C[C@H](C)O1 [Compound 598, [7-(3-Chloro-pyridin-2-yl)-2-(2,6-dimethyl-morpholin-4-ylmethyl)-quinazolin-4-yl]-(4-trifluoromethyl-phenyl)-amine (cis)]
< 1000 nM | COCc1nc(Nc2ccc(C(F)(F)F)nc2)c2ccc(-c3ncccc3C)nc2n1 [Compound 148, [2-Methoxymethyl-7-(3-methyl-pyridin-2-yl)-pyrido[2,3-d]pyrimidin-4-yl]-(6-trifluoromethyl-pyridin-3-yl)-amine]
< 1000 nM | CN(C)CC(C)(C)COCc1nc(Nc2ccc(C(F)(F)F)cc2)c2ccc(-c3ncccc3C(F)(F)F)cc2n1 [Compound 123, [2-(3-Dimethylamino-2,2-dimethyl-propoxymethyl)-7-(3-trifluoromethyl-pyridin-2-yl)-quinazolin-4-yl]-(4-trifluoromethyl-phenyl)-amine]
< 1000 nM | COCc1nc(Nc2ccc(Cl)c(C(F)(F)F)c2)c2ccc(-c3ncccc3C(F)(F)F)nc2n1 [Compound 294]
< 1000 nM | NC(=O)C1CCN(CCc2nc(Nc3ccc(C(F)(F)F)cc3)c3ccc(-c4ncccc4C(F)(F)F)cc3n2)CC1 [Compound 589, 1-{2-[4-(4-Trifluoromethyl-phenylamino)-7-(3-trifluoromethyl-pyridin-2-yl)-quinazolin-2-yl]-ethyl}-piperidine-4-carboxylic acid amide]
< 1000 nM | CC(C)c1ccc(Nc2nc(CO)nc3cc(-c4ncccc4C(F)(F)F)ccc23)cc1 [Compound 156, [4-(4-Isopropyl-phenylamino)-7-(3-trifluoromethyl-pyridin-2-yl)-quinazolin-2-yl]-methanol]
< 1000 nM | CN(Cc1nc(Nc2ccc(C(F)(F)F)nc2)c2ccc(-c3ncccc3C(F)(F)F)cc2n1)Cc1ccccc1F [Compound 355, [2-{[(2-Fluoro-benzyl)-methyl-amino]-methyl}-7-(3-trifluoromethyl-pyridin-2-yl)-quinazolin-4-yl]-(6-trifluoromethyl-pyridin-3-yl)-amine]
< 1000 nM | COCc1nc(Nc2ccc(S(=O)(=O)N3CCOCC3)cc2)c2ncc(-c3ncccc3Cl)cc2n1 [Compound 120, [7-(3-Chloro-pyridin-2-yl)-2-methoxymethyl-pyrido[3,2-d]pyrimidin-4-yl]-[4-(morpholine-4-sulfonyl)-phenyl]-amine]
< 1000 nM | C[C@@H]1CN(Cc2nc(Nc3ccc(C(C)(C)C)cc3)c3ccc(-c4ncccc4Cl)cc3n2)CCO1 [Compound 672, (R)-(4-tert-Butyl-phenyl)-[7-(3-chloro-pyridin-2-yl)-2-(2-methyl-morpholin-4-ylmethyl)-quinazolin-4-yl]-amine]
< 1000 nM | CCN(CC)CCc1nc(Nc2ccc(C(F)(F)F)cc2)c2ccc(-c3ncccc3C(F)(F)F)cc2n1 [Compound 411, [2-Diethylaminoethyl-7-(3-trifluoromethyl-pyridin-2-yl)-quinazolin-4-yl]-(4-trifluoromethyl-phenyl)-amine]
< 1000 nM | CC(C)(C)c1ccc(Nc2nc(CO)nc3cc(-c4ncccc4C(F)(F)F)ccc23)cc1 [Compound 155, [4-(4-tert-Butyl-phenylamino)-7-(3-trifluoromethyl-pyridin-2-yl)-quinazolin-2-yl]-methanol]
< 1000 nM | CC(=O)c1ccc(Nc2nc(CN3C[C@@H](C)O[C@H](C)C3)nc3cc(-c4ncccc4Cl)ccc23)cc1 [Compound 623, (R,R)-1-{4-[7-(3-Chloro-pyridin-2-yl)-2-(2,6-dimethyl-morpholin-4-ylmethyl)-quinazolin-4-ylamino]-phenyl}-ethanone]
< 1000 nM | O=C(O)CNC(=O)c1nc(Nc2ccc(C(F)(F)F)cc2)c2ccc(-c3ncccc3C(F)(F)F)nc2n1 [Compound 764, {[4-(4-Trifluoromethyl-phenylamino)-7-(3-trifluoromethyl-pyridrn-2-yl)-pyrido[2,3-d]pyrimidine-2-carbonyl]-amino}-acetic acid]
< 1000 nM | COCCOCc1nc(Nc2ccc(C(F)(F)F)cc2)c2ccc(-c3ncccc3Cl)nc2n1 [Compound 76, [7-(3-Chloro-pyridin-2-yl)-2-(2-methoxy-ethoxymethyl)-pyrido[2,3-d]pyrimidin-4-yl]-(4-trifluoromethyl-phenyl)-amine]
< 1000 nM | COC(=O)CCc1nc(Nc2ccc(C(F)(F)F)nc2)c2ccc(-c3ncccc3C(F)(F)F)cc2n1 [Compound 18, 3-[7-(3-Trifluoromethyl-pyridin-2-yl)-4-(6-trifluoromethyl-pyridin-3-ylamino)-quinazolin-2-yl]-propionic acid methyl ester]
< 1000 nM | CCC(c1ccccc1)N(C)CCc1nc(Nc2ccc(C(F)(F)F)cc2)c2ccc(-c3ncccc3C(F)(F)F)cc2n1 (stereo not shown) [Compound 390, [2-{2-[Methyl-(1-phenyl-propyl)-amino]-ethyl}-7-(3-trifluoromethyl-pyridin-2-yl)-quinazolin-4-yl]-(4-trifluoromethyl-phenyl)-amine]
< 1000 nM | COCCCNC(=O)c1nc(Nc2ccc(C(F)(F)F)cc2)c2ccc(-c3ncccc3C(F)(F)F)nc2n1 [Compound 456, 4-(4-Trifluoromethyl-phenylamino)-7-(3-trifluoromethyl-pyridin-2-yl)-pyrido[2,3-d]pyrimidine-2-carboxylic acid (3-methoxy-propyl)-amide]
< 1000 nM | CC(C)c1ccc(Nc2nc(COC3CCOCC3)nc3cc(-c4ncccc4Cl)ccc23)cc1 [Compound 103, [7-(3-Chloro-pyridin-2-yl)-2-(tetrahydro-pyran-4-yloxymethyl)-quinazolin-4-yl]-(4-isopropyl-phenyl)-amine]
< 1000 nM | CC(C)c1ccc(Nc2nc(CN3C[C@@H](C)O[C@@H](C)C3)nc3cc(-c4ncccc4Cl)ccc23)cc1 [Compound 681, [7-(3-Chloro-pyridin-2-yl)-2-(2,6-dimethyl-morpholin-4-ylmethyl)-quinazolin-4-yl]-(4-isopropyl-phenyl)-amine (cis)]
< 1000 nM | CN1CCCC1CCNC(=O)c1nc(Nc2ccc(C(F)(F)F)cc2)c2ccc(-c3ncccc3C(F)(F)F)nc2n1 (stereo not shown) [Compound 440, 4-(4-Trifluoromethyl-phenylamino)-7-(3-trifluoromethyl-pyridin-2-yl)-pyrido[2,3-d]pyrimidine-2-carboxylic acid [2-(1-methyl-pyrrolidin-2-yl)-ethyl]-amide]
< 1000 nM | CC1CN(CCc2nc(Nc3ccc(C(F)(F)F)cc3)c3ccc(-c4ncccc4C(F)(F)F)cc3n2)CC(C)O1 (stereo not shown) [Compound 561, [2-[2-(2,6-Dimethyl-morpholin-4-yl)-ethyl]-7-(3-trifluoromethyl-pyridin-2-yl)-quinazolin-4-yl]-(4-trifluoromethyl-phenyl)-amine]
< 1000 nM | FC(F)(F)c1ccc(Nc2nc(CNCc3ccccc3)nc3cc(-c4ncccc4C(F)(F)F)ccc23)nc1 [Compound 560, [2-(Benzylamino-methyl)-7-(3-trifluoromethyl-pyridin-2-yl)-quinazolin-4-yl]-(5-trifluoromethyl-pyridin-2-yl)-amine]
< 1000 nM | CN1CCN(CCCc2nc(Nc3ccc(C(F)(F)F)cc3)c3ccc(-c4ncccc4C(F)(F)F)cc3n2)CC1 [Compound 573, [2-[3-(4-Methyl-piperazin-1-yl)-propyl]-7-(3-trifluoromethyl-pyridin-2-yl)-quinazolin-4-yl]-(4-trifluoromethyl-phenyl)-amine]
< 1000 nM | C[C@@H]1CN(Cc2nc(Nc3ccc(S(=O)(=O)N4CCOCC4)cc3)c3ncc(-c4ncccc4Cl)cc3n2)C[C@H](C)O1 [Compound 720, [7-(3-Chloro-pyridin-2-yl)-2-(2,6-dimethyl-morpholin-4-ylmethyl)-pyrido[3,2-d]pyrimidin-4-yl]-[4-(morpholine-4-sulfonyl)-phenyl]-amine (cis)]
< 1000 nM | CC(C)(C)c1ccc(Nc2nc(CN3CCCC3CO)nc3cc(-c4ncccc4C(F)(F)F)ccc23)cc1 (stereo not shown) [Compound 755, {1-[4-(4-tert-Butyl-phenylamino)-7-(3-trifluoromethyl-pyridin-2-yl)-quinazolin-2-ylmethyl]-pyrrolidin-2-yl}-methanol]
< 1000 nM | C=CCN(CC=C)CCc1nc(Nc2ccc(C(F)(F)F)cc2)c2ccc(-c3ncccc3C(F)(F)F)cc2n1 [Compound 415, [2-Diallylaminoethyl-7-(3-trifluoromethyl-pyridin-2-yl)-quinazolin-4-yl]-(4-trifluoromethyl-phenyl)-amine]
< 1000 nM | C[C@@H]1CN(Cc2nc(Nc3ccc(S(=O)(=O)C(F)(F)F)cc3)c3ncc(-c4ncccc4C(F)(F)F)cc3n2)C[C@H](C)O1 [Compound 593, [2-(2,6-Dimethyl-morpholin-4-ylmethyl)-7-(3-trifluoromethyl-pyridin-2-yl)-pyrido[3,2-d]pyrimidin-4-yl]-(4-trifluoromethanesulfonyl-phenyl)-amine (cis)]
< 1000 nM | C=C(C)CN(CC)Cc1nc(Nc2ccc(C(F)(F)F)cc2)c2ncc(-c3ncccc3C(F)(F)F)cc2n1 [Compound 667, [2-{[Ethyl-(2-methyl-allyl)-amino]-methyl}-7-(3-trifluoromethyl-pyridin-2-yl)-pyrido[3,2-d]pyrimidin-4-yl]-(4-trifluoromethyl-phenyl)-amine]
< 1000 nM | COCc1nc(Nc2ccc(C(C)C(F)(F)F)cc2)c2ccc(-c3ncccc3C(F)(F)F)nc2n1 (stereo not shown) [Compound 94, [2-Methoxymethyl-7-(3-trifluoromethyl-pyridin-2-yl)-pyrido[2,3-d]pyrimidin-4-yl]-[4-(2,2,2-trifluoro-1-methyl-ethyl)-phenyl]-amine]

Structure (SMILES) | Ki
CCN(CC)C(=O)C(C)(C)c1ccc(Nc2nc(COCC(C)C)nc3nc(-c4ncccc4C)ccc23)cc1 [Compound 222, N,N-Diethyl-2-{4-[2-isobutoxymethyl-7-(3-methyl-pyridin-2-yl)-pyrido[2,3-d]pyrimidin-4-ylamino]-phenyl}-isobutyramide] | < 1000 nM
CC(C)COCc1nc(Nc2ccc(S(C)(=O)=O)cc2)c2ccc(-c3ncccc3Cl)nc2n1 [Compound 226, [7-(3-Chloro-pyridin-2-yl)-2-isobutoxymethyl-pyrido[2,3-d]pyrimidin-4-yl]-(4-methanesulfonyl-phenyl)-amine] | < 1000 nM
